Activity calls are given as the source filed them. The rule behind the calls is not given here. Where a SMILES comes first, the peptide text is derived from it. [ ]: non-standard residue; d: D form. Phe(4-NO2) = N[C@@H](Cc1ccc([N+](=O)[O-])cc1)C(=O)O; Bip = N[C@@H](Cc1ccc(-c2ccccc2)cc1)C(=O)O; Phe(4-NH2) = Nc1ccc(C[C@H](N)C(=O)O)cc1; Phe(4-F) = N[C@@H](Cc1ccc(F)cc1)C(=O)O; 1Nal = N[C@@H](Cc1cccc2ccccc12)C(=O)O; 2Nal = N[C@@H](Cc1ccc2ccccc2c1)C(=O)O; Dmt = Cc1cc(O)cc(C)c1C[C@H](N)C(=O)O; hPhe = N[C@@H](CCc1ccccc1)C(=O)O; Phg = N[C@H](C(=O)O)c1ccccc1; Dab = NCC[C@H](N)C(=O)O; Abu = CC[C@H](N)C(=O)O; Dap = NC[C@H](N)C(=O)O
Key:
[1] = biological target: T1, Nociceptin receptor (Homo sapiens, UniProt P41146); assay: Agonist activity at human NOP receptor expressed in CHO cells assessed as stimulation of calcium mobilization by Fluo-4 AM dye based analysis
T1 sequence (P41146 whole entry): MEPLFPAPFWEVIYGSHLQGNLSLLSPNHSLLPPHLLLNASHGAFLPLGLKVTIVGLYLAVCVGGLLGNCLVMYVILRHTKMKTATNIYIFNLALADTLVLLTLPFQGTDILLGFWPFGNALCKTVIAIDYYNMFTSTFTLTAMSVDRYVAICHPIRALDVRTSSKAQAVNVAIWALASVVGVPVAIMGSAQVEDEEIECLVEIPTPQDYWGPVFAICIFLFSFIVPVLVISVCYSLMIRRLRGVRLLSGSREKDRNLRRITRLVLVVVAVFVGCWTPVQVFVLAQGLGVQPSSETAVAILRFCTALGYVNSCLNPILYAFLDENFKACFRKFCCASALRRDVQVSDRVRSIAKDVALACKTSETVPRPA

[2] = biological target: T2, Mu-type opioid receptor (Homo sapiens, UniProt P35372); assay: Agonist activity at human mu opioid receptor expressed in CHO cells assessed as stimulation of calcium mobilization by Fluo-4 AM dye based analysis
T2 sequence (P35372 whole entry): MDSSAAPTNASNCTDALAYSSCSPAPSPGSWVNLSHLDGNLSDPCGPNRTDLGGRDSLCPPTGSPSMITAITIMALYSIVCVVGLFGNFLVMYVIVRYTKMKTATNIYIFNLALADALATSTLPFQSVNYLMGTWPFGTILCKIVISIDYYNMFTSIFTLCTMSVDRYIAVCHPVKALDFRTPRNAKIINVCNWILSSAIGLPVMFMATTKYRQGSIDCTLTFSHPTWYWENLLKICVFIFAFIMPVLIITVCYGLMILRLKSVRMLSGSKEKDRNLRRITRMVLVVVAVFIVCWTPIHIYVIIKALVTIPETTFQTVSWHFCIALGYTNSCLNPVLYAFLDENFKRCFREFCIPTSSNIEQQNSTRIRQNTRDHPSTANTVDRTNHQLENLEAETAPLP

[3] = system: CHO; assay: Concentration ratio of human NOP receptor expressed in CHO cells to human mu opioid receptor expressed in CHO cells; assay type: cell-based
[4] = biological target: T2, Mu-type opioid receptor; assay: Agonist activity at human mu opioid receptor expressed in CHO cells assessed as stimulation of calcium mobilization by measuring concentration relative curve at 10 uM by Fluo-4 AM dye based analysis; assay type: functional, cell-based
[5] = biological target: T2, Mu-type opioid receptor; assay: Agonist activity at human mu opioid receptor expressed in CHO cells assessed as dynamic mass redistribution by DMR assay; assay type: functional, cell-based
[6] = biological target: T2, Mu-type opioid receptor; assay: Agonist activity at human mu opioid receptor expressed in CHO cells assessed as dynamic mass redistribution by DMR assay relative to control; assay type: functional, cell-based; settings: filed as agonist
[7] = biological target: Kappa-type opioid receptor (Homo sapiens, UniProt P41145); assay: Agonist activity at human kappa opioid receptor expressed in CHO cells assessed as stimulation of calcium mobilization by Fluo-4 AM dye based analysis; assay type: functional, cell-based
Kappa-type opioid receptor, sequence (P41145 whole entry): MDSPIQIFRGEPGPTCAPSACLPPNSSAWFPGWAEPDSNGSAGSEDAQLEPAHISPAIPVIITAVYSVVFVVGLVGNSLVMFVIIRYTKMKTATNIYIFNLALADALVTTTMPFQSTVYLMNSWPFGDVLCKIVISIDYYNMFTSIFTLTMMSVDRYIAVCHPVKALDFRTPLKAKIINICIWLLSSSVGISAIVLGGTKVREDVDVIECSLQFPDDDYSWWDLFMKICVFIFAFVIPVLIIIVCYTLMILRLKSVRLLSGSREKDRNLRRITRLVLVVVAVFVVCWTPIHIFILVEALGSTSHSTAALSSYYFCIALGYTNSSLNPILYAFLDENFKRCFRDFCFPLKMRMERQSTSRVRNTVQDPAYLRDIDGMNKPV

[8] = organism: Cavia porcellus; assay: Anti-tussive activity in citric acid-induced guniea pig cough model assessed as reduction in cough number co- treated with nebulizer; assay type: functional, organism-based; settings: time 30.0 min
[9] = system: Cavia porcellus; assay: Anti-tussive activity in citric acid-induced guniea pig cough model coadministered with citric acid; assay type: functional, organism-based
[10] = biological target: T1, Nociceptin receptor
Description: Agonist activity at human NOP receptor expressed in CHO cells assessed as dynamic mass redistribution by DMR assay

[11] = biological target: T2, Mu-type opioid receptor; settings: CHO

| Compound | EC50 [1] | EC50 [2] | Ratio [3] | pEC50 [4] | further results |
| --- | --- | --- | --- | --- | --- |
| Cc1cc(O)cc(C)c1C[C@H](N)C(=O)NCC(=O)NCC(=O)N[C@@H](Cc1ccccc1)C(=O)N[C@@H](Cc1ccc(N)cc1)C(=O)NCC(=O)N[C@@H](C)C(=O)N[C@@H](CCCNC(=N)N)C(=O)N[C@@H](CCCCN)C(=O)N[C@@H](CO)C(=O)N[C@@H](C)C(=O)N[C@@H](CCCNC(=N)N)C(=O)N[C@@H](CCCCN)C(N)=O (H-[Dmt]GGF[Phe(4-NH2)]GARKSARK-NH2) | 26.3 nM | 15.1 nM | 1.73 |  |  |
| Cc1cc(O)cc(C)c1C[C@H](N)C(=O)NCC(=O)NCC(=O)N[C@@H](Cc1ccccc1)C(=O)N[C@H](C(=O)NCC(=O)N[C@@H](C)C(=O)N[C@@H](CCCNC(=N)N)C(=O)N[C@@H](CCCCN)C(=O)N[C@@H](CO)C(=O)N[C@@H](C)C(=O)N[C@@H](CCCNC(=N)N)C(=O)N[C@@H](CCCCN)C(N)=O)c1ccccc1 (H-[Dmt]GGF[Phg]GARKSARK-NH2) | 112 nM | 2.88 nM | 39 |  |  |
| C[C@H](NC(=O)CNC(=O)[C@H](CCc1ccccc1)NC(=O)[C@H](Cc1ccccc1)NC(=O)CNC(=O)CNC(=O)[C@@H](N)Cc1ccc(O)cc1)C(=O)N[C@@H](CCCNC(=N)N)C(=O)N[C@@H](CCCCN)C(=O)N[C@@H](CO)C(=O)N[C@@H](C)C(=O)N[C@@H](CCCNC(=N)N)C(=O)N[C@@H](CCCCN)C(N)=O (H-YGGF[hPhe]GARKSARK-NH2) |  |  |  | inactive |  |
| Cc1cc(O)cc(C)c1C[C@H](NC(=O)[C@H](Cc1ccccc1)NC(=O)CNC(=O)CNC(=O)[C@@H](N)Cc1c(C)cc(O)cc1C)C(=O)NCC(=O)N[C@@H](C)C(=O)N[C@@H](CCCNC(=N)N)C(=O)N[C@@H](CCCCN)C(=O)N[C@@H](CO)C(=O)N[C@@H](C)C(=O)N[C@@H](CCCNC(=N)N)C(=O)N[C@@H](CCCCN)C(N)=O (H-[Dmt]GGF[Dmt]GARKSARK-NH2) | 4.07 nM | 8.32 nM | 0.49 |  | EC50 [5]: 2.29 nM; Emax [6]: 202%; EC50 [7]: 3.24 nM; Activity [8]: Active; Activity [9]: inactive; EC50 [10]: 19.5 nM |
| C[C@H](NC(=O)CNC(=O)[C@H](Cc1ccc(F)cc1)NC(=O)[C@H](Cc1ccccc1)NC(=O)CNC(=O)CNC(=O)[C@@H](N)Cc1ccc(O)cc1)C(=O)N[C@@H](CCCNC(=N)N)C(=O)N[C@@H](CCCCN)C(=O)N[C@@H](CO)C(=O)N[C@@H](C)C(=O)N[C@@H](CCCNC(=N)N)C(=O)N[C@@H](CCCCN)C(N)=O (H-YGGF[Phe(4-F)]GARKSARK-NH2) | 49 nM |  | 0.06 | inactive |  |
| C[C@H](NC(=O)CNC(=O)[C@H](Cc1ccc(-c2ccccc2)cc1)NC(=O)[C@H](Cc1ccccc1)NC(=O)CNC(=O)CNC(=O)[C@@H](N)Cc1ccc(O)cc1)C(=O)N[C@@H](CCCNC(=N)N)C(=O)N[C@@H](CCCCN)C(=O)N[C@@H](CO)C(=O)N[C@@H](C)C(=O)N[C@@H](CCCNC(=N)N)C(=O)N[C@@H](CCCCN)C(N)=O (H-YGGF[Bip]GARKSARK-NH2) |  |  |  | inactive |  |
| C[C@H](NC(=O)CNC(=O)[C@H](Cc1ccc([N+](=O)[O-])cc1)NC(=O)[C@H](Cc1ccccc1)NC(=O)CNC(=O)CNC(=O)[C@@H](N)Cc1ccc(O)cc1)C(=O)N[C@@H](CCCNC(=N)N)C(=O)N[C@@H](CCCCN)C(=O)N[C@@H](CO)C(=O)N[C@@H](C)C(=O)N[C@@H](CCCNC(=N)N)C(=O)N[C@@H](CCCCN)C(N)=O (H-YGGF[Phe(4-NO2)]GARKSARK-NH2) | 49 nM |  | 0.06 | inactive |  |
| Cc1cc(O)cc(C)c1C[C@H](N)C(=O)NCC(=O)NCC(=O)N[C@@H](Cc1ccccc1)C(=O)N[C@@H](Cc1cccc2ccccc12)C(=O)NCC(=O)N[C@@H](C)C(=O)N[C@@H](CCCNC(=N)N)C(=O)N[C@@H](CCCCN)C(=O)N[C@@H](CO)C(=O)N[C@@H](C)C(=O)N[C@@H](CCCNC(=N)N)C(=O)N[C@@H](CCCCN)C(N)=O (H-[Dmt]GGF[1Nal]GARKSARK-NH2) | 60.3 nM | 15.8 nM | 3.8 |  |  |
| H-YGGFTGARKSARK-NH2 |  |  | < 0.001 | inactive |  |
| H-YGGFKGARKSARK-NH2 |  |  |  | inactive |  |
| C[C@H](NC(=O)CNC(=O)[C@H](Cc1ccc(N)cc1)NC(=O)[C@H](Cc1ccccc1)NC(=O)CNC(=O)CNC(=O)[C@@H](N)Cc1ccc(O)cc1)C(=O)N[C@@H](CCCNC(=N)N)C(=O)N[C@@H](CCCCN)C(=O)N[C@@H](CO)C(=O)N[C@@H](C)C(=O)N[C@@H](CCCNC(=N)N)C(=O)N[C@@H](CCCCN)C(N)=O (H-YGGF[Phe(4-NH2)]GARKSARK-NH2) | 30.2 nM | 372 nM | 0.08 |  |  |
| Cc1cc(O)cc(C)c1C[C@H](N)C(=O)NCC(=O)NCC(=O)N[C@@H](Cc1ccccc1)C(=O)N[C@H](C(=O)NCC(=O)N[C@@H](C)C(=O)N[C@@H](CCCNC(=N)N)C(=O)N[C@@H](CCCCN)C(=O)N[C@@H](CO)C(=O)N[C@@H](C)C(=O)N[C@@H](CCCNC(=N)N)C(=O)N[C@@H](CCCCN)C(N)=O)[C@@H](C)O | 2.69 nM | 42.7 nM | 0.06 |  |  |
| Cc1cc(O)cc(C)c1C[C@H](N)C(=O)NCC(=O)NCC(=O)N[C@@H](Cc1ccccc1)C(=O)N[C@@H](Cc1ccccc1)C(=O)NCC(=O)N[C@@H](C)C(=O)N[C@@H](CCCNC(=N)N)C(=O)N[C@@H](CCCCN)C(=O)N[C@@H](CO)C(=O)N[C@@H](C)C(=O)N[C@@H](CCCNC(=N)N)C(=O)N[C@@H](CCCCN)C(N)=O (H-[Dmt]GGFFGARKSARK-NH2) | 56.2 nM | 6.46 nM | 8.71 |  |  |
| CC[C@H](NC(=O)[C@H](Cc1ccccc1)NC(=O)CNC(=O)CNC(=O)[C@@H](N)Cc1ccc(O)cc1)C(=O)NCC(=O)N[C@@H](C)C(=O)N[C@@H](CCCNC(=N)N)C(=O)N[C@@H](CCCCN)C(=O)N[C@@H](CO)C(=O)N[C@@H](C)C(=O)N[C@@H](CCCNC(=N)N)C(=O)N[C@@H](CCCCN)C(N)=O (H-YGGF[Abu]GARKSARK-NH2) |  |  |  | inactive |  |
| C[C@H](NC(=O)CNC(=O)[C@H](CN)NC(=O)[C@H](Cc1ccccc1)NC(=O)CNC(=O)CNC(=O)[C@@H](N)Cc1ccc(O)cc1)C(=O)N[C@@H](CCCNC(=N)N)C(=O)N[C@@H](CCCCN)C(=O)N[C@@H](CO)C(=O)N[C@@H](C)C(=O)N[C@@H](CCCNC(=N)N)C(=O)N[C@@H](CCCCN)C(N)=O (H-YGGF[Dap]GARKSARK-NH2) |  |  |  | inactive |  |
| Cc1cc(O)cc(C)c1C[C@H](NC(=O)[C@H](Cc1ccccc1)NC(=O)CNC(=O)CNC(=O)[C@@H](N)Cc1ccc(O)cc1)C(=O)NCC(=O)N[C@@H](C)C(=O)N[C@@H](CCCNC(=N)N)C(=O)N[C@@H](CCCCN)C(=O)N[C@@H](CO)C(=O)N[C@@H](C)C(=O)N[C@@H](CCCNC(=N)N)C(=O)N[C@@H](CCCCN)C(N)=O (H-YGGF[Dmt]GARKSARK-NH2) | 17.8 nM | 195 nM | 0.09 |  |  |
| COc1ccc(C[C@H](NC(=O)[C@H](Cc2ccccc2)NC(=O)CNC(=O)CNC(=O)[C@@H](N)Cc2ccc(O)cc2)C(=O)NCC(=O)N[C@@H](C)C(=O)N[C@@H](CCCNC(=N)N)C(=O)N[C@@H](CCCCN)C(=O)N[C@@H](CO)C(=O)N[C@@H](C)C(=O)N[C@@H](CCCNC(=N)N)C(=O)N[C@@H](CCCCN)C(N)=O)cc1 (H-YGGFY(Me)GARKSARK-NH2) | 13.2 nM |  | 0.02 | inactive |  |
| H-YGGFVGARKSARK-NH2 |  |  |  | inactive |  |
| Cc1cc(O)cc(C)c1C[C@H](N)C(=O)NCC(=O)NCC(=O)N[C@@H](Cc1ccccc1)C(=O)N[C@@H](Cc1ccc(O)cc1)C(=O)NCC(=O)N[C@@H](C)C(=O)N[C@@H](CCCNC(=N)N)C(=O)N[C@@H](CCCCN)C(=O)N[C@@H](CO)C(=O)N[C@@H](C)C(=O)N[C@@H](CCCNC(=N)N)C(=O)N[C@@H](CCCCN)C(N)=O (H-[Dmt]GGFYGARKSARK-NH2) | 123 nM | 15.5 nM | 7.94 |  |  |
| H-YGGFWGARKSARK-NH2 |  |  |  | inactive |  |
| C[C@H](NC(=O)CNC(=O)[C@@H](NC(=O)[C@H](Cc1ccccc1)NC(=O)CNC(=O)CNC(=O)[C@@H](N)Cc1ccccc1)[C@@H](C)O)C(=O)N[C@@H](CCCNC(=N)N)C(=O)N[C@@H](CCCCN)C(=O)N[C@@H](CO)C(=O)N[C@@H](C)C(=O)N[C@@H](CCCNC(=N)N)C(=O)N[C@@H](CCCCN)C(N)=O |  |  |  |  | pEC50 [11]: inactive |
| C[C@H](NC(=O)CNC(=O)[C@H](Cc1ccc2ccccc2c1)NC(=O)[C@H](Cc1ccccc1)NC(=O)CNC(=O)CNC(=O)[C@@H](N)Cc1ccc(O)cc1)C(=O)N[C@@H](CCCNC(=N)N)C(=O)N[C@@H](CCCCN)C(=O)N[C@@H](CO)C(=O)N[C@@H](C)C(=O)N[C@@H](CCCNC(=N)N)C(=O)N[C@@H](CCCCN)C(N)=O (H-YGGF[2Nal]GARKSARK-NH2) |  |  |  | inactive |  |
| C[C@H](NC(=O)CNC(=O)[C@H](CCN)NC(=O)[C@H](Cc1ccccc1)NC(=O)CNC(=O)CNC(=O)[C@@H](N)Cc1ccc(O)cc1)C(=O)N[C@@H](CCCNC(=N)N)C(=O)N[C@@H](CCCCN)C(=O)N[C@@H](CO)C(=O)N[C@@H](C)C(=O)N[C@@H](CCCNC(=N)N)C(=O)N[C@@H](CCCCN)C(N)=O (H-YGGF[Dab]GARKSARK-NH2) |  |  |  | inactive |  |
| H-YGGFHGARKSARK-NH2 |  |  |  | inactive |  |
| H-YGGFNGARKSARK-NH2 |  |  |  | inactive |  |
| H-YGGFK(Ac)GARKSARK-NH2 |  |  |  | inactive |  |
